Like-named read-outs stand apart in the source and are kept apart here.
Legend:
[1] = tested on: osteo-tropic subclone of the human breast CA line, MDA MB-231; settings: athymic (nude) mice injected with MDA MB-231 subclone; as described in Boucharaba et al. (2006); cited from earlier work
[2] = tested on: LPA inhibition of adenylyl cyclase activation in rat glioma C62B cells; assay: LPA-driven adenylyl cyclase inhibition in rat glioma cells (relief by antagonist); assay type: cell-based; settings: isoproterenol-stimulated cAMP accumulation, all in a dose-dependent manner, FIG. 3
Text: FIG. 3 is a graphic representation of LPA-driven adenylyl cyclase inhibition in C6 glioma cells.
Rat glioma C62B cells accumulate cAMP in response to isoproterenol, and this stimulation of adenylyl cyclase is blocked by LPA. As shown, the LPA inhibition of adenylyl cyclase activation is relieved by addition of VPC51299, VPC52172, VPC52173, and VPC52178, all in a dose-dependent manner. Results are illustrated in FIG. 3.

[3] = tested on: osteo-tropic subclone of the human breast CA line, MDA MB-231; assay: Lytic bone metastasis in athymic (nude) mice; assay type: in vivo, mouse; settings: athymic (nude) mice injected with MDA MB-231 subclone; treated for two weeks; FIG. 13
Procedure: Mice are tested for assessing lytic bone metastasis. Athymic (nude) mice were injected with a osteo-tropic subclone of the human breast CA line, MDA MB-231. After two weeks the bones are scanned to assess the cancer in the bone. The cancer is treated for two weeks and the lesions are imaged. […] 103, pp. 9643-9648. The results are illustrated in FIG. 13.

[4] = tested on: Adult male Sprague Dawley rats; assay: Chronic constriction injury (CCI) model of neuropathic pain: thermal hyperalgesia and mechanical allodynia; assay type: in vivo, rat
Text: The chronic constriction injury (CCI) model of neuropathic pain (Bennett and Xie, Pain, 33 p 87-107 (1988)) was used to assess the efficacy of test compound VPC51299 in relieving thermal hyperalgesia and mechanical allodynia. Adult male Sprague Dawley rats were anesthetized and their sciatic nerves exposed at the level of mid-thigh. Four loose ligations of chromic gut suture were placed around the sciatic nerve and the wound was closed. For sham surgeries, the sciatic nerve was mobilized and the wound closed without ligation. The animals' responses to mechanical and thermal stimuli were assessed prior to CCI and at days 1, 3, 5, 7, and 14 after CCI.
Thermal hyperalgesia was measured using a Plantar Test Apparatus (IITC Inc, Woodland Hills, Calif.). Rats were placed on a warmed glass surface, allowed to acclimate, and a thermal stimulus was applied to the plantar surface of the hind paw. Paw withdrawal latency (PWL) is defined as the time from stimulus application to paw withdrawal. Results are illustrated in FIG. 9A.
Mechanical allodynia was measured two ways. First, a size 5.18 Von Frey monofilament (corresponding to 15.0 g.) was applied to the plantar surface of the hind paw (Touch Test Sensory Evaluator Kit from Stoelting Co., Wood Dale, Ill.). The number of paw withdrawals out of 10 three second trials was recorded. Results are illustrated in FIG. 9B. Second, the maximum withdrawal threshold was assessed using an electronic von Frey Anesthesiometer (IITC Inc, Woodland Hills, Calif.). Force was applied to the plantar surface of the hindpaw until the rat withdrew its paw. The maximum force applied to the paw before withdrawal was recorded. Results are illustrated in FIG. 9C.

Cc1noc(-c2ccc(CSCCC(=O)O)cc2)c1NC(=O)OC(C)c1ccccc1Cl (stereo not shown) [Kil6425]
size of lytic bone lesions in treated mice [1]: significantly smaller

CCCCCCCCCCCCCCCC(=O)N[C@@H](/C=C/P(=O)(O)O)Cc1ccc(OCc2cc(OCC(F)(F)F)ccn2)cc1 [VPC51299, (3R)-(3-Hexadecanoylamino-4-{4-[4-(2,2,2-trifluoro-ethoxy)-pyridin-2-ylmethoxy]-phenyl}-trans-but-1-enyl)-phosphonic Acid]
relief of LPA inhibition of adenylyl cyclase activation [2]: relieved
size of lytic bone lesions in treated mice [3]: significantly smaller
paw withdrawal latency (thermal stimulus), slower than vehicle treated rats ([4]; day 5, after 5 days of treatment, difference vs vehicle treated rats, Plantar Test): 3.1 s
withdrawal threshold, higher than vehicle treated rats ([4]; day 5, after 5 days of treatment, electronic von Frey Anesthesiometer, difference vs vehicle treated rats): 4.0 g
number of paw withdrawals (out of 10 trials), fewer than vehicle treated rats ([4]; day 5, after 5 days of treatment, size 5.18 Von Frey monofilament (15.0 g), difference vs vehicle treated rats): 3.2 times
efficacy in relieving thermal hyperalgesia and mechanical allodynia associated with CCI ([4]; rats with sciatic nerve ligation (CCI), FIGS. 9A-9C): effective in relieving some of the thermal hyperalgesia and mechanical allodynia

CCCCCCCCCCCC(=O)N[C@@H](/C=C/P(=O)(O)O)Cc1ccc(OCc2cc(OCC(F)(F)F)ccn2)cc1 [VPC52172, (3R)-(3-Dodecanoylamino-4-{4-[4-(2,2,2-trifluoro-ethoxy)-pyridin-2-ylmethoxy]-phenyl}-trans-but-1-enyl)-phosphonic Acid]
relief of LPA inhibition of adenylyl cyclase activation [2]: relieved

CCCCCCCCCC(=O)N[C@@H](/C=C/P(=O)(O)O)Cc1ccc(OCc2cc(OCC(F)(F)F)ccn2)cc1 [VPC52173, (3R)-(3-Decanoylamino-4-{4-[4-(2,2,2-trifluoro-ethoxy)-pyridin-2-ylmethoxy]-phenyl}-trans-but-1-enyl)-phosphonic Acid]
relief of LPA inhibition of adenylyl cyclase activation [2]: relieved

CCCCCCCC(=O)N[C@@H](/C=C/P(=O)(O)O)Cc1ccc(OCc2cc(OCC(F)(F)F)ccn2)cc1 [VPC52178, (1R)-(3-octanoylamino-4-{4-[4-(2,2,2-trifluoro-ethoxy)-pyridin-2-ylmethoxy]-phenyl}-trans-but-1-enyl)-phosphonic Acid]
relief of LPA inhibition of adenylyl cyclase activation [2]: relieved

Source: patent US8283339B2, “Vinyl phosphonate lysophosphatidic acid receptor antagonists” (University of Virginia Patent Foundation, priority 2006, dated 2012)
